The results in this text go back to patent US4965280A, “Antifungal carbinols” (E. I. Du Pont de Nemours and Company, priority 1989, dated 1990).

For experiment [1], the system named is Candida albicans ATCC 11651. Put plainly: In vivo systemic Candida infection in mice, primary assay. Details: species or system Candida albicans; CF-1 female mice. As to conditions: Candida albicans, 150 mg/kg per day, read-out: % Survival. The method in brief: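 CF-1 female mice (20 g, 10 per group) were infected IV with 0.2 ml of 1×10^7/ml C. albicans ATCC 11651, then given test compound subcutaneously at 50 or 150 mg/kg/day at 1 and 6 h post-infection and once daily for three more days. Survival was followed for 21 days against infected untreated mice; ≥70% protection at 14 days was scored active.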

A further experiment has as its system Venturia inaequalis. The experiment can be described thus: Example A apple scab. The format is in vivo. The settings on record: read-out: disease control rating, Ex. A. The method in brief: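 First, compounds are taken up in acetone amounting to 6% of the final volume. Next, they are suspended in purified water with 250 ppm TREM 014 at 100 or 20 ppm. Finally, seedlings of apple are sprayed until run-off.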

In experiment [2] the test system is Cercosporidium personatum. The experiment can be described thus: Example B Peanut Late Leafspot. It is filed as in vivo. The settings on record: Nothopassalora personata, read-out: disease control rating, Ex. B. The method in brief: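 Dose 100 or 20 ppm; vehicle acetone 6% v/v final in water + 250 ppm surfactant; applied by spraying peanut seedlings to run-off.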

The test system of another experiment is Botrytis cinerea. The experiment can be described thus: Example C bean grey mold. It is filed as in vivo. The settings on record: Botrytis cinerea, 24 h, read-out: disease control rating, Ex. C. Summed up: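 At 20 or 100 ppm, each compound was applied as an aqueous suspension (acetone 6% final; TREM 014 250 ppm) sprayed onto young broad bean plants to the point of run-off.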

The test system of experiment [3] is Erysiphe graminis f. sp. tritici. Put plainly: Example D wheat powdery mildew. It is filed as in vivo. The settings on record: Blumeria graminis, 144 h, read-out: disease control rating, Ex. D. Summed up: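 First, compound taken up in acetone, 6% of the end volume. Next, suspended in water with 250 ppm polyhydric alcohol esters at 100 or 20 ppm. Last, applied to wheat seedlings until run-off.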

The test system of another experiment is Pyricularia oryzae. Put plainly: whole plant or invertebrate. It is filed as in vivo. As to conditions: Pyricularia oryzae, 120 h; for pest or weed control at 100 ppm: read-out: disease control rating, Ex. E, 100 PPM.
The subject of experiment [4] is Rhizoctonia solani. Put plainly: Example F rice sheath blight. The format is in vivo. The settings on record: Rhizoctonia solani, 144 h, read-out: disease control rating, Ex. F. Summed up:
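Application rates were 100 or 20 ppm, delivered as a foliar spray to the point of run-off on rice seedlings. The formulation used 6% acetone in water with 250 ppm surfactant.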

The next experiment concerns Puccinia recondita. Put plainly: Example G wheat leaf rust. It is filed as in vivo. The settings on record: read-out: disease control rating, Ex. G.
In another experiment the test system is Phytophthora infestans. Put plainly: whole plant or invertebrate. The format is in vivo. The settings on record: Phytophthora infestans, in Solanum lycopersicum, read-out: disease control rating, Ex. H, 100 PPM.
In a further experiment the test system is Plasmorpara viticola. Put plainly: Example I grape downy mildew. It is filed as in vivo. As to conditions: read-out: disease control rating, Ex. I. Summed up:
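Compounds were dissolved in acetone (6% of final volume) and suspended at 100 or 20 ppm in purified water with 250 ppm TREM 014 surfactant (polyhydric alcohol esters). Grape seedlings were sprayed with this suspension to run-off.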

The subject of another experiment is Pythium aphanadermatum. Put plainly: Example J cucumber damping off. The format is in vivo. As to conditions: Pythium, 336 h; 5 kg/ha; read-out: disease control rating, Ex. J. Summed up:
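Seeds and soil were inoculated with a mix of sand, cereal and Pythium aphanadermatum mycelium, the fungus responsible for cucumber damping off. They were kept in a growth chamber at 30° C. for 14 days, and disease was then rated to assess control.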

The test system of experiment [5] is Rhizoctonia solani. Put plainly: Example K cotton blight. The format is in vivo. The settings on record: 336 h, 5 kg/ha, read-out: disease control rating, Ex. K. As for the experimental part:
[…] Seeds and soil were then inoculated with a mixture of sand, cereal and mycelium of the fungus Rhizoctonia solani, causal agent of cotton blight, and incubated in a growth chamber at 30° C. for 14 days. Disease ratings were then made.

Experiment [6] relates to Fusarium oxysporum f. sp. cucumerinum. Put plainly: Example L cucumber wilt. It is filed as in vivo. As to conditions: 336 h, 5 kg/ha, read-out: disease control rating, Ex. L. As for the experimental part: […] Seeds and soil were then inoculated with a mixture of sand, cereal and mycelium of the fungus Fusarium oxysporum f. sp. cucumerinum, causal agent of cucumber wilt, and incubated in a growth chamber at 30° C. for 14 days. Disease ratings were then made.

The next experiment concerns Sclerotium rolfsii. Put plainly: Example M southern blight. The format is in vivo. The settings on record: Agroathelia rolfsii, 336 h; 5 kg/ha; read-out: disease control rating, Ex. M. As for the experimental part:
[…] Seeds and soil were then inoculated with a mixture of sand, cereal and mycelium of the fungus Sclerotium rolfsii, causal agent of sourthern blight, and incubated in a growth chamber at 30° C. for 14 days. Disease ratings were then made.

Experiment [7] has as its system Candida albicans ATCC 11651. The experiment can be described thus: In vitro antifungal MIC, microtiter broth dilution. The settings on record: Candida albicans, ATCC11651, 24 h, read-out: MIC values, C. albicans, 30°, 24 hours. A general note: In broth dilution the organism is exposed to a series of concentrations in liquid medium.
Experiment [8] has as its system Aspergillus fumigatus ATCC 28214. The experiment can be described thus: In vitro antifungal MIC, microtiter broth dilution. As to conditions: Aspergillus fumigatus, ATCC28214, 24 h, read-out: MIC values, A. fumigatus, 30°, 24 hours.

≈ marks a conversion by molar mass, not a printed value. Where two headings read alike, the source gives them in different places.

Consider `C=C(c1ccc(C(F)(F)F)cc1)C(O)(Cn1cncn1)c1ccc(F)cc1` (centres unmarked) [Example 65], for which the responders at 150 mg/kg was 100% in [1] (ATCC11651, 168 h, day 7); 70% in experiment [1] (ATCC11651, 336 h, day 14); 50% in experiment [1] (ATCC11651, 504 h, day 21). Further, the pest or weed control at 100 ppm with Venturia inaequalis amounted to 34%; in experiment [2], 96%; in the experiment with Botrytis cinerea, 94%; in [3], 85%; in the experiment on Pyricularia oryzae, 30%; in the experiment on Rhizoctonia solani [4], 62%. The pest or weed control at 100 ppm worked out at 100% with Puccinia recondita, 0% with Phytophthora infestans and 0% with Plasmorpara viticola. For the same compound, the pest or weed control at 5000 g/ha (in the experiment on Pythium aphanadermatum; in the experiment on Rhizoctonia solani [5]; in experiment [6]; in the experiment on Sclerotium rolfsii) was 0% each time. The MIC in experiment [7] stood at 0.2 µg/mL (≈ 0.53 µM); in experiment [8], 100 µg/mL (≈ 265 µM).

Take `C=C(c1ccccc1F)C(O)(Cn1cncn1)c1ccc(F)cc1` (centres unmarked) [Example 10]: the responders at 150 mg/kg in experiment [1] (ATCC11651, 168 h, day 7) came out at 20%; in experiment [1] (ATCC11651, 336 h, day 14), 10%; in experiment [1] (ATCC11651, 504 h, day 21) it was 0%. Moreover, the pest or weed control at 100 ppm in the experiment on Venturia inaequalis worked out at 0%; in experiment [2] it was 76%; with Botrytis cinerea it was 52%; in experiment [3], 63%; in the experiment with Pyricularia oryzae it was 0%; in the experiment with Rhizoctonia solani [4] it was 17%. Further, the values for the pest or weed control at 100 ppm in the experiment with Puccinia recondita, in the experiment with Phytophthora infestans and with Plasmorpara viticola were 64%, 0% and 0%, respectively. Besides, the pest or weed control at 5000 g/ha (in the experiment with Pythium aphanadermatum; with Rhizoctonia solani [5]; in experiment [6]; in the experiment with Sclerotium rolfsii) was 0% in each case. Moreover, the minimal inhibitory concentration (MIC) in experiment [7] worked out at 1.6 µg/mL (≈ 4.89 µM); in experiment [8] it was 25 µg/mL (≈ 76.4 µM).

On to `C=C(c1cccc(Cl)c1)C(O)(Cn1cncn1)c1ccc(Cl)c(Cl)c1` (centres unmarked) [Example 905], for which the responders at 150 mg/kg in [1] (ATCC11651, 168 h, day 7) was determined as 80%; in experiment [1] (ATCC11651, 336 h, day 14), 50%; in experiment [1] (ATCC11651, 504 h, day 21), 20%. Moreover, the pest or weed control at 20 ppm in the experiment on Venturia inaequalis (20 PPM) is 7%; in experiment [2] (20 PPM), 0%; in the experiment with Botrytis cinerea (20 PPM), 15%; in experiment [3] (20 PPM), 47%; with Pyricularia oryzae (read-out: disease control rating, Ex. E, 20 PPM) it was 0%; in the experiment on Rhizoctonia solani [4] (20 PPM) it was 0%. Also, the pest or weed control at 20 ppm in the experiment with Puccinia recondita (20 PPM) is 16%. Besides, the pest or weed control at 100 ppm came to 19% in the experiment with Botrytis cinerea; 0% with Pyricularia oryzae; 37% in the experiment with Rhizoctonia solani [4]; 0% with Phytophthora infestans; 87% in the experiment with Plasmorpara viticola. Besides, the pest or weed control at 5000 g/ha (in the experiment with Pythium aphanadermatum; in the experiment with Rhizoctonia solani [5]; in experiment [6]; in the experiment with Sclerotium rolfsii) was 0% throughout. Further, the MIC in [7] worked out at 0.04 µg/mL (≈ 0.101 µM); in experiment [8], 100 µg/mL (≈ 253 µM).

In the case of `C=C(c1ccc(Cl)cc1)C(O)(Cn1cncn1)c1ccc(Cl)cc1` (centres unmarked) [Example 27], the responders at 150 mg/kg was 100% in experiment [1] (ATCC11651, 168 h, day 7); 100% in experiment [1] (ATCC11651, 336 h, day 14); 100% in experiment [1] (ATCC11651, 504 h, day 21). For the same compound, the pest or weed control at 100 ppm in the experiment on Venturia inaequalis came to 62%; in experiment [2] it was 100%; with Botrytis cinerea, 88%; in [3], 98%; in the experiment on Pyricularia oryzae it was 95%; in the experiment with Rhizoctonia solani [4], 100%. Moreover, the pest or weed control at 100 ppm with Puccinia recondita is 100%; in the experiment on Phytophthora infestans, 24%; in the experiment with Plasmorpara viticola, 84%. Moreover, the pest or weed control at 5000 g/ha (in the experiment with Pythium aphanadermatum; in the experiment with Rhizoctonia solani [5]; in experiment [6]; in the experiment on Sclerotium rolfsii) was 0% in each case. For the same compound, the MIC in experiment [7] was not above 0.4 µg/mL; in [8] it was 12.5 µg/mL (≈ 34.7 µM).

Consider `C=C(c1cccc2ccccc12)C(O)(Cn1cncn1)c1ccc(F)cc1` (centres unmarked) [Example 208], for which the responders at 150 mg/kg is 0% in experiment [1] (ATCC11651, 168 h, day 7); 0% in experiment [1] (ATCC11651, 336 h, day 14); 0% in [1] (ATCC11651, 504 h, day 21). For the same compound, the pest or weed control at 100 ppm in the experiment with Venturia inaequalis came out at 84%; in [2] it was 37%; with Botrytis cinerea it was 83%; in [3], 76%; with Pyricularia oryzae it was 4%; in the experiment on Rhizoctonia solani [4], 61%. For the same compound, the pest or weed control at 100 ppm in the experiment on Puccinia recondita was 97%; in the experiment with Phytophthora infestans it was 0%; in the experiment on Plasmorpara viticola, 74%. For the same compound, the pest or weed control at 5000 g/ha (with Pythium aphanadermatum; in the experiment on Rhizoctonia solani [5]; in experiment [6]; in the experiment with Sclerotium rolfsii) was 0% in each case. Also, the figures for the MIC in experiment [7] and in experiment [8] were 1.6 µg/mL (≈ 4.45 µM) and 50 µg/mL (≈ 139 µM), respectively.

`C=C(c1ccc(Cl)cc1)C(O)(Cn1cncn1)c1ccc(F)cc1F` (centres unmarked) [Example 28, 2-(2,4-Difluorophenyl)-3-(4-chlorophenyl)-1-(1H-1,2,4-triazol-1-yl)-3-buten-2-ol]: the responders at 150 mg/kg in [1] (ATCC11651, 168 h, day 7) is 100%; in experiment [1] (ATCC11651, 336 h, day 14) it was 90%. The pest or weed control at 100 ppm in the experiment with Venturia inaequalis worked out at 89%; in experiment [2], 100%; in the experiment on Botrytis cinerea, 88%; in experiment [3], 98%; with Pyricularia oryzae, 81%; with Rhizoctonia solani [4], 100%. The pest or weed control at 100 ppm amounted to 100% with Puccinia recondita, 0% with Phytophthora infestans and 6% in the experiment with Plasmorpara viticola. The pest or weed control at 5000 g/ha (in the experiment with Pythium aphanadermatum; with Rhizoctonia solani [5]; in [6]; with Sclerotium rolfsii) was 0% in each case. The figures for the MIC in [7] and in experiment [8] were 0.03 µg/mL (≈ 0.0829 µM) and 1.6 µg/mL (≈ 4.42 µM), respectively.

The term MIC denotes the least concentration at which growth counts as inhibited.
